Results: paper PMC6264553, “Synthesis and In Vitro Protein Tyrosine Kinase Inhibitory Activity of Furan-2-yl(phenyl)methanone Derivatives” (Molecules, 2011)

Legend:
[1] = biological target: Protein Tyrosine Kinase (PTK); test: PTK inhibitory activity, ELISA tyrosine kinase assay with poly-Glu-Tyr substrate; assay type: biochemical, rat; conditions: for IC50: tyrosine kinase extracted from rat brain tissue, means of three experiments, NA = not active at 5 μg/mL, read-out: Protein Tyrosine Kinase (PTK) inhibition activity, IC50; for PTK inhibitory activity (in words): in vitro, SAR discussion
Procedure: The activities of PTKs were tested using ELISA. The tyrosine kinase was extracted from brain tissue of rat, and microtiter plates were coated using poly-Glu-Tyr (PGT) as substrates. If the tyrosine residues of PGT were phosphorylated by PTKs, they bound to phospho-specific monoclonal antibody that was labeled specifically with HRP. The absorbance was measured to reflect the activity of PTK.
The phosphorylation assays were performed at 37 °C in a final volume of 40 µL tyrosine kinase. The concentrations of PTKs used to construct calibration curves were as follows: 600, 500, 400, 300, 200 and 100 × 10^−7 U/mL for PTK. A concentration of 500 × 10^−7/μL was used for each inhibitor. Phosphorylation reactions were initiated with the addition of 40 mM ATP (10 μL) into each vessel, and the plate was incubated at 37 °C for 30 min. After completion of reaction, liquid was decanted and the vessels were washed four times with Tween-PBS. One hundred microliters of blocking solution was added to the vessels and incubated at 37 °C for 30 min. After washing the plate with Tween-PBS, anti-phosphotyrosine (50 μL) was added to the vessels and incubated at 37 °C for 30 min. The reaction liquid was decanted and the remaining solution was removed by rinsing four times with Tween-PBS. One hundred μL of HRP coloring agent was added and incubated at 37 °C for 15 min. The reaction was terminated by addition of 1 N sulfuric acid (100 μL /well). The absorbance of the reaction was measured at 450 nm on a microplate reader.

Structure (SMILES) | melting point [°C] | IC50 [1] [µM] | PTK inhibitory activity (in words) [1]
COc1cc(C(=O)c2ccco2)c(Cl)c(OC)c1OC [Compound 21c, (2-Chloro-3,4,5-trimethoxyphenyl)(furan-2-yl)methanone] | 80 to 82 |  | 
O=C(c1ccc(O)c(O)c1)c1ccco1 [Compound 4a, (3,4-Dihydroxyphenyl)(furan-2-yl)methanone] | 132 to 134 | 4.66 | 
COc1ccc(C(=O)c2ccco2)cc1 [Compound 3d, Furan-2-yl(4-methoxyphenyl)methanone] | 58 to 60 |  | 
O=C(c1ccco1)c1cc(Br)ccc1O [Compound 4c, (5-Bromo-2-hydroxyphenyl)(furan-2-yl)methanone] | 88 to 90 |  | 
O=C(c1ccco1)c1cc(Br)c(Br)c(O)c1O [Compound 22d, (4,5-Dibromo-2,3-dihydroxyphenyl)(furan-2-yl)methanone] | 138 to 140 | 9.56 | 
O=C(c1ccco1)c1c(Br)c(O)c(O)c(O)c1Br [Compound 22b, (2,6-Dibromo-3,4,5-trihydroxyphenyl)(furan-2-yl)methanone] | 148 to 150 |  | no activity
COc1c(Br)c(C(=O)c2ccco2)c(Br)c(OC)c1OC [Compound 21b, (2,6-Dibromo-3,4,5-trimethoxyphenyl)(furan-2-yl)methanone] | 96 to 98 |  | 
O=C(c1ccco1)c1cccc(O)c1O [Compound 18a, (2,3-Dihydroxyphenyl)(furan-2-yl)methanone] | 64 to 66 | 13.2 | 
COc1ccc(C(=O)c2ccco2)c(OC)c1O [Compound 3b, Furan-2-yl(3-hydroxy-2,4-dimethoxyphenyl)methanone] | 168 to 170 |  | 
COc1ccc(Br)cc1C(=O)c1ccco1 [Compound 3c, (5-Bromo-2-methoxyphenyl)(furan-2-yl)methanone] | 66 to 70 |  | 
O=C(c1ccco1)c1ccc(O)c(O)c1O [Compound 4b, Furan-2-yl(2,3,4-trihydroxyphenyl)methanone] |  | 6.42 | 
COc1cccc(OC)c1C(=O)c1ccco1 [Compound 17b, (2,6-Dimethoxyphenyl)(furan-2-yl)methanone] | 64 to 66 |  | 
O=C(c1ccc(Br)o1)c1ccc(O)c(O)c1O [Compound 8a, (5-Bromofuran-2-yl)(2,3,4-trihydroxyphenyl)methanone] | 132 to 134 | 5.31 | 
O=C(c1ccco1)c1cc(O)c(O)c(O)c1Cl [Compound 22c, (2-Chloro-3,4,5-trihydroxyphenyl)(furan-2-yl)methanone] | 150 to 152 | 4.62 | 
O=C(c1ccco1)c1c(O)cccc1O [Compound 18b, (2,6-Dihydroxyphenyl)(furan-2-yl)methanone] | 66 to 68 | 12.7 | 

Next, values leading:

melting point [°C] | IC50 [1] [µM] | PTK inhibitory activity (in words) [1] | Structure (SMILES)
82 to 84 |  |  | O=C(c1ccc(Br)o1)c1cc(Br)ccc1O [Compound 8b, (5-Bromo-2-hydroxyphenyl)(5-bromofuran-2-yl)methanone]
100 to 102 |  |  | O=C(c1ccc(O)c(Br)c1)c1ccco1 [Compound 22a, (3-Bromo-4-hydroxyphenyl)(furan-2-yl)methanone]
98 to 100 |  |  | COc1ccc(Br)cc1C(=O)c1ccc(Br)o1 [Compound 7b, (5-Bromo-2-methoxyphenyl)(5-bromofuran-2-yl)methanone]
107 to 109 |  |  | COc1ccc(C(=O)c2cc(Br)c(Br)o2)cc1O [Compound 13, (4,5-Dibromofuran-2-yl)(3-hydroxy-4-methoxyphenyl)methanone]
 | 2.72 | strongest activity | O=C(c1ccc(O)c(O)c1)c1ccc(Br)o1 [Compound 8c, (5-Bromofuran-2-yl)(3,4-dihydroxyphenyl)methanone]
98 to 100 |  |  | COc1ccc(C(=O)c2ccco2)cc1OC [Compound 3a, (3,4-Dimethoxyphenyl)(furan-2-yl)methanone]
184 to 186 |  | no activity | O=C(c1ccc(O)c(O)c1)c1cc(Br)c(Br)o1 [Compound 14, (4,5-Dibromofuran-2-yl)(3,4-dihydroxyphenyl)methanone]
102 to 104 |  |  | COc1c(O)c(C(=O)c2ccco2)cc(Br)c1Br [Compound 21d, (4,5-Dibromo-2-hydroxy-3-methoxyphenyl)(furan-2-yl)methanone]
